Experiments:
human Hsp70 = human Hsp70 (Homo sapiens, UniProt P0DMV8); test: Endogenous Hsp70 ATPase activity; assay type: biochemical
T antigen [1] = target: T1, T antigen (Simian virus 40, UniProt P03070); test: ATPase activity of purified T antigen; assay type: biochemical, polyomavirus; settings: for Fold change in ATPase activity of T antigen: compound 10 μM, purified T antigen, normalized to DMSO, mean of 3 experiments
T antigen [2] = target: T1, T antigen; settings: cited from earlier work
JC Virus = test: JC virus replication in COS7 cells; assay type: cell-based; settings: comparison with cidofovir
RMS13 and MCF7 cells = test: Growth inhibition of the two cancer lines; assay type: cell-based; settings: Homo sapiens, read-out: GI50 across the two cancer lines
[3] = test system: human foreskin fibroblasts; test: Cytotoxicity in human foreskin fibroblasts; assay type: cell-based; settings: in words
Hsp70 + Hdj2 = Hsp70 + Hdj2 (Homo sapiens, UniProt P0DMV8); test: Hsp40; assay type: biochemical; settings: carboxylic acid in place of tetrazole
Chain of Hsp70 + Hdj2 (P0DMV8 whole entry): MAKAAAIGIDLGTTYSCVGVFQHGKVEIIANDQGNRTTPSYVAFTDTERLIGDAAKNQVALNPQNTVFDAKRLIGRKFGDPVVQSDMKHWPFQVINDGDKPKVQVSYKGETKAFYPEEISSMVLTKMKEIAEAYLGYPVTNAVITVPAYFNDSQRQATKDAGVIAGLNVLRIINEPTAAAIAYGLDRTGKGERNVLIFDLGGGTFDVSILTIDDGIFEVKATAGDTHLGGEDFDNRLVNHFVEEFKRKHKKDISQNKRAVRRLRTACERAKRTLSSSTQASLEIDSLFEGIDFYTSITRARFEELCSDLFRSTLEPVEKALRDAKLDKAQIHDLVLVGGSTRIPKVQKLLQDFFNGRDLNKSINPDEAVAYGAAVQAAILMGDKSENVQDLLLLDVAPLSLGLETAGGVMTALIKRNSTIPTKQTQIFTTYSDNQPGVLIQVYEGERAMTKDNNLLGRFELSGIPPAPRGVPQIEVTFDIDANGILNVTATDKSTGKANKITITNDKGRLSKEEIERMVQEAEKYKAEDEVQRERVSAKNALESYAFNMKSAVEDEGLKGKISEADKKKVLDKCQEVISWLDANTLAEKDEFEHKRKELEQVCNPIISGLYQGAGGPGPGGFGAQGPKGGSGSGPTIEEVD

T1 sequence (P03070 whole entry): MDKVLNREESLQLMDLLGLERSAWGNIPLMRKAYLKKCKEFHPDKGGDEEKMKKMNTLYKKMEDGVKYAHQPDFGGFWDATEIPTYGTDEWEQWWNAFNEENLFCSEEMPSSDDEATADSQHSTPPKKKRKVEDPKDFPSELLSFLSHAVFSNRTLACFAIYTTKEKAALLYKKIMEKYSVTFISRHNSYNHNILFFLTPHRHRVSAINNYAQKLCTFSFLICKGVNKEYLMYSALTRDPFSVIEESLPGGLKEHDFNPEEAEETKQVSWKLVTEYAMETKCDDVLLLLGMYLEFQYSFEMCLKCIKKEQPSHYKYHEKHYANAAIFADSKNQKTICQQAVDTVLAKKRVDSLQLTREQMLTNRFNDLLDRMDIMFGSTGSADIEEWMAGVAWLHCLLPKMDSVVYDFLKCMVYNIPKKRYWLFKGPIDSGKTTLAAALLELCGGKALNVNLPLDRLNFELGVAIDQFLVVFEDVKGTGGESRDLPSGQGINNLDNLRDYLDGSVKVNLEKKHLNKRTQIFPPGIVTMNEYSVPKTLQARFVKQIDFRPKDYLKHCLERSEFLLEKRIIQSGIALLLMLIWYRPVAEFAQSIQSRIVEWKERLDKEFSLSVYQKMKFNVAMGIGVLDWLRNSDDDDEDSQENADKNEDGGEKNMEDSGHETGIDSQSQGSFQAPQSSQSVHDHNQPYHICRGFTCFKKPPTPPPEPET
Chain of human Hsp70 (P0DMV8 whole entry): as the sequence (P0DMV8 whole entry) above

**Q.** What does the source list for `CC1=C(C(=O)OCc2ccccc2)C(c2ccc(-c3ccccc3C)cc2)NC(=O)N1Cc1ccc(-c2nnn[nH]2)cc1` (centres unmarked) [SMAL]?
**A.** Effect on endogenous Hsp70 ATPase activity, in words (human Hsp70): modestly inhibited; Effect on T antigen ATPase activity, in words (T antigen [1]; final concentration 10 μM): significantly reduced the ATPase activity of T antigen; IC50 (T antigen [2]; read-out: IC50 T antigen ATPase activity): 5 µM; EC50 (T antigen [2]; read-out: reported EC50 (T antigen ATPase)): ~5 µM

**Q.** For `CC1=C(C(=O)OCc2ccccc2)C(c2ccc(-c3ccccc3C)cc2)NC(=S)N1Cc1ccc(-c2nnn[nH]2)cc1` (centres unmarked) [AMT551-093], which “Fold change in ATPase activity of T antigen” value (from here on “Fold change in ATPase activity”) (T antigen [1]) is on record?
**A.** −7.7 fold

**Q.** Which “Fold change in ATPase activity” value (T antigen [1]) does the source give for `CC1=C(C(=O)OCc2ccccc2)C(c2ccc(-c3ccccc3C)cc2)N(Cc2ccc(-c3nnn[nH]3)cc2)C(=S)N1` (centres unmarked) [AMT551-058] here?
**A.** −7.5 fold

**Q.** For `CC1=C(C(=O)OCc2ccccc2)C(c2ccc(-c3ccccc3)cc2)NC(=O)N1CCCCCc1nnn[nH]1` (centres unmarked) [BQU015242], which “Effect on endogenous Hsp70 ATPase activity, in words” value (human Hsp70) is on record?
**A.** modestly inhibited

**Q.** And the “Fold change in ATPase activity” value (T antigen [1])?
**A.** −1.4 fold

**Q.** Which “Fold change in ATPase activity” value (T antigen [1]) does the source give for `CC1=C(C(=O)OCc2ccccc2)C(c2ccc(-c3ccccc3)cc2)N(CCCCCC(=O)O)C(=S)N1` (centres unmarked) [AMT551-071] here?
**A.** −1.6 fold

**Q.** Which “Fold change in ATPase activity” value (T antigen [1]) does the source give for `CC1=C(C(=O)OCc2ccccc2)C(c2ccc(-c3ccccc3)cc2)N(Cc2ccc(-c3nnn[nH]3)cc2)C(=O)N1` (centres unmarked) [AMT628-003] here?
**A.** −2.3 fold

**Q.** Which “Fold change in ATPase activity” value (T antigen [1]) does the source give for `CC1=C(C(=O)OCc2ccccc2)C(c2ccc(-c3ccccc3C)cc2)NC(=O)N1CCCCCc1nnn[nH]1` (centres unmarked) [LR340-006] here?
**A.** −2.1 fold

**Q.** Which results are given for `CC1=C(C(=O)OCc2ccccc2)C(c2ccc(-c3ccccc3)cc2)N(Cc2ccc(-c3nnn[nH]3)cc2)C(=S)N1` (centres unmarked) [AMT580-043]?
**A.** Fold change in ATPase activity of T antigen (T antigen [1]): −4.5 fold; Inhibition of polyomavirus replication in cell culture, in words (JC Virus): more potently than an existing drug, cidofovir

**Q.** Which GI50 (RMS13 and MCF7 cells) does the source give for `CCCCCCN(C(=O)CCCCCN1C(=O)NC(c2ccc(-c3ccccc3)cc2)C(C(=O)OCc2ccccc2)=C1C)C(C(=O)NCCCC)c1ccc(OCC(=O)OC)c(C(=O)OC)c1` (centres unmarked) [MAL3-101] here?
**A.** 6 to 13 µM

**Q.** For `Nc1ccn(C[C@@H](CO)OCP(=O)(O)O)c(=O)n1.O.O` [Cidofovir], which “Toxicity relative to the dihydropyrimidines” value [3] is on record?
**A.** significantly less toxic than the dihydropyrimidines

**Q.** For `CC1=C(C(=O)OCc2ccccc2)C(c2ccc(-c3ccccc3)cc2)NC(=S)N1CCCCCC(=O)O` (centres unmarked) [AMT551-090], which “Effect on Hsp40-dependent activation of Hsp70, in words” value (Hsp70 + Hdj2) is on record?
**A.** either lacked inhibitory activity or modesty stimulated

**Q.** What about the “Fold change in ATPase activity” value (T antigen [1]) of the same molecule?
**A.** −1.5 fold

**Q.** Which “Fold change in ATPase activity” value (T antigen [1]) does the source give for `CC1=C(C(=O)OCc2ccccc2)C(c2ccc(-c3ccccc3)cc2)NC(=O)N1Cc1ccc(-c2nnn[nH]2)cc1` (centres unmarked) [ML282-56] here?
**A.** −2.0 fold

**Q.** With `CC1=C(C(=O)OCc2ccccc2)C(c2ccc(-c3ccccc3C)cc2)NC(=S)N1CCCCCc1nnn[nH]1` (centres unmarked) [AMT580-033] as the molecule, how does the “Fold change in ATPase activity” value (T antigen [1]) read?
**A.** −4.7 fold

**Q.** With `CC1=C(C(=O)OCc2ccccc2)C(c2ccc(-c3ccccc3)cc2)NC(=S)N1Cc1ccc(-c2nnn[nH]2)cc1` (centres unmarked) [AMT551-078] as the molecule, how does the “Fold change in ATPase activity” value (T antigen [1]) read?
**A.** −5.5 fold

**Q.** Which results are given for `CC1=C(C(=O)OCc2ccccc2)C(c2ccc(-c3ccccc3)cc2)NC(=O)N1CCCCCC(=O)O` (centres unmarked) [MAL2-11B]?
**A.** Effect on Hsp40-dependent activation of Hsp70, in words (Hsp70 + Hdj2): either lacked inhibitory activity or modesty stimulated; Fold change in ATPase activity of T antigen (T antigen [1]): −1.5 fold

**Q.** Which “Fold change in ATPase activity” value (T antigen [1]) does the source give for `CC1=C(C(=O)OCc2ccccc2)C(c2ccc(-c3ccccc3)cc2)NC(=S)N1CCCCCc1nnn[nH]1` (centres unmarked) [AMT580-027] here?
**A.** −2.1 fold

From PMC5050167 (Bioorganic & medicinal chemistry letters, 2016)
